# Test results reported in US7101533B2, “Agent for inducing receptor potential” (Kabushiki Kaisha Hayashibara Seibutsu Kagaku Kenkyujo, priority 2002, dated 2006).
# System: retinal nerve cells
# Assay: intracellular calcium experimental method in cultured chick embryo retinal cells with photostimulation (Fluo-4 fluorescence and intracellular potential)
# Format: cell-based
# Source text: All the above polymethine organic dye compounds can be obtained in the desired amount either by the method disclosed in “Kanko-Shikiso” (Photosynthetic Dyes), pp. 11–31, edited by Masaaki Hayami, published by Sangyo Tosho Publisher on Oct. 17, 1997; or in accordance therewith. In case the compounds are commercially available, they can be optionally purified prior to use. Evaluation of whether organic dye compounds evoke receptor potential in response to photostimulation in the optic nerve can be determined in accordance with the intracellular calcium experiment method disclosed in “Jikken-Igaku” (Experimental Medicine), Vol. 7, No. 6, edited by Hideaki Karaki et al., published on Apr. 5, 1989 by Yodosha, Co., Ltd., Tokyo, Japan, with a modification that an organic dye compound to be tested coexists in animal retinal cells cultured in a nutrient culture medium containing a fluorescent calcium indicator, followed by detecting the intensity of fluorescence emitted from the indicator or of the electric potential generated intracellularly. […]
# Thereafter, Fluo-4 acetoxymethyl ester, commercialized by Molecular Probe, Oregon, U.S.A., a fluorescent calcium indicator, was added to each well of the culture plates to give a concentration of 10 μM, incubated at 37° C. for 30 min, and further incubated for another 30 min similarly as above except for omitting Fluo-4 acetoxymethyl ester. […] The organic dye compounds in Table 1 were respectively dissolved in dimethylsulfoxide and irradiated with a light having a wavelength of 470 to 490 nm to excite Fluo-4 acetoxymethyl ester before or after being added to each culture in each well to give a concentration of 0.0005 to 0.5 μg/ml, followed by detecting the intensity of fluorescence and the intracellular potential at a wavelength of around 510 to 550 nm emitted from the excited Fluo-4 acetoxymethyl ester. […]
smiles,measurement,setting,value
CCCC1=NN(c2ccc(S(=O)(=O)[O-])cc2)C(=O)C1=CC=C(C=Cc1c(CCC)nn(-c2ccc(S(=O)(=O)[O-])cc2)c1[O-])c1ccccc1.[Na+].[Na+].[Na+] [Chemical Formula 14],Fluorescent intensity With calcicludine,"as above, with 2.5 μM of calcicludine (antagonist of L-, N-, P-type high-threshold calcium channels)",Unchanged
same,Fluorescent intensity Without calcicludine,"chick embryo retinal nerve cells loaded with Fluo-4 acetoxymethyl ester, dye 0.0005 to 0.5 μg/ml, light 470 to 490 nm, emission around 510 to 550 nm, no calcicludine",Increased
same,Intracellular potential,"receptor potential observed as intracellular potential, dye 0.0005 to 0.5 μg/ml, light 470 to 490 nm, absence of calcicludine",Detected
